Results published in PubChem BioAssay (NCI).
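In this assay, cells in 96-well plates receive the compound at five concentrations for 48 hours. Endpoints are linearly interpolated between the surrounding concentrations. At the TGI there is no net growth.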

How the values were obtained:
Experiment in all cases: DTP human tumour cell line panel, 48 h
786-0 renal = tested on: 786-0 renal
A498 renal = tested on: A498 renal
A549 NSCLC = tested on: A549 NSCLC
ACHN renal = tested on: ACHN renal
BT-549 breast = tested on: BT-549 breast
CAKI-1 renal = tested on: CAKI-1 renal
CCRF-CEM leukemia = tested on: CCRF-CEM leukemia
COLO 205 colon = tested on: COLO 205 colon
DU-145 prostate = tested on: DU-145 prostate
EKVX NSCLC = tested on: EKVX NSCLC
HCC-2998 colon = tested on: HCC-2998 colon
HCT-116 colon = tested on: HCT-116 colon
HCT-15 colon = tested on: HCT-15 colon
HL-60(TB) leukemia = tested on: HL-60(TB) leukemia
HOP-62 NSCLC = tested on: HOP-62 NSCLC
HOP-92 NSCLC = tested on: HOP-92 NSCLC
HS 578T breast = tested on: HS 578T breast
HT29 colon = tested on: HT29 colon
IGROV1 ovarian = tested on: IGROV1 ovarian
K-562 leukemia = tested on: K-562 leukemia
KM12 colon = tested on: KM12 colon
LOX IMVI melanoma = tested on: LOX IMVI melanoma
M14 melanoma = tested on: M14 melanoma
MCF7 breast = tested on: MCF7 breast
MDA-MB-231 breast = tested on: MDA-MB-231 breast
MDA-MB-435 = tested on: MDA-MB-435
MDA-N = tested on: MDA-N
MOLT-4 leukemia = tested on: MOLT-4 leukemia
NCI-H226 lung = tested on: NCI-H226 lung
NCI-H23 lung = tested on: NCI-H23 lung
NCI-H460 lung = tested on: NCI-H460 lung
NCI/ADR-RES ovarian = tested on: NCI/ADR-RES ovarian
OVCAR-3 ovarian = tested on: OVCAR-3 ovarian
OVCAR-4 ovarian = tested on: OVCAR-4 ovarian
OVCAR-5 ovarian = tested on: OVCAR-5 ovarian
OVCAR-8 ovarian = tested on: OVCAR-8 ovarian
PC-3 prostate = tested on: PC-3 prostate
RPMI-8226 leukemia = tested on: RPMI-8226 leukemia
RXF 393 renal = tested on: RXF 393 renal
SF-268 CNS = tested on: SF-268 CNS
SF-295 CNS = tested on: SF-295 CNS
SF-539 CNS = tested on: SF-539 CNS
SK-MEL-2 melanoma = tested on: SK-MEL-2 melanoma
SK-MEL-28 melanoma = tested on: SK-MEL-28 melanoma
SK-MEL-5 melanoma = tested on: SK-MEL-5 melanoma
SK-OV-3 ovarian = tested on: SK-OV-3 ovarian
SN12C renal = tested on: SN12C renal
SNB-19 CNS = tested on: SNB-19 CNS
SR leukemia = tested on: SR leukemia
T-47D breast = tested on: T-47D breast
TK-10 renal = tested on: TK-10 renal
U251 CNS = tested on: U251 CNS
UACC-257 melanoma = tested on: UACC-257 melanoma
UACC-62 melanoma = tested on: UACC-62 melanoma
UO-31 renal = tested on: UO-31 renal
MALME-3M melanoma = tested on: MALME-3M melanoma
NCI-H522 lung = tested on: NCI-H522 lung
SW-620 colon = tested on: SW-620 colon

CCOC(=O)c1c(C)n([O-])c2cc(Cl)c(Cl)cc2[n+]1=O
TGI (786-0 renal): 84.5 µM | TGI (A498 renal): 58 µM | TGI (A549 NSCLC): 35.6 µM | TGI (ACHN renal): > 100 µM | TGI (BT-549 breast): 75.9 µM | TGI (CAKI-1 renal): 53 µM | TGI (CCRF-CEM leukemia): 45.9 µM | TGI (COLO 205 colon): 39 µM | TGI (DU-145 prostate): 30.8 µM | TGI (EKVX NSCLC): 74.4 µM | TGI (HCC-2998 colon): 29.1 µM | TGI (HCT-116 colon): 46.3 µM | TGI (HCT-15 colon): 37.2 µM | TGI (HL-60(TB) leukemia): 24.6 µM | TGI (HOP-62 NSCLC): 57.8 µM | TGI (HOP-92 NSCLC): 33.2 µM | TGI (HS 578T breast): 58.3 µM | TGI (HT29 colon): > 100 µM | TGI (IGROV1 ovarian): 24.1 µM | TGI (K-562 leukemia): > 100 µM | TGI (KM12 colon): 27.5 µM | TGI (LOX IMVI melanoma): 38.4 µM | TGI (M14 melanoma): 43.9 µM | TGI (MCF7 breast): > 100 µM | TGI (MDA-MB-231 breast): 51.3 µM | TGI (MDA-MB-435): 55.1 µM | TGI (MDA-N): > 100 µM | TGI (MOLT-4 leukemia): 42.8 µM | TGI (NCI-H226 lung): 33.5 µM | TGI (NCI-H23 lung): 26.6 µM | TGI (NCI-H460 lung): 40.7 µM | TGI (NCI/ADR-RES ovarian): 66.6 µM | TGI (OVCAR-3 ovarian): 37.1 µM | TGI (OVCAR-4 ovarian): 33.9 µM | TGI (OVCAR-5 ovarian): > 100 µM | TGI (OVCAR-8 ovarian): 53 µM | TGI (PC-3 prostate): > 100 µM | TGI (RPMI-8226 leukemia): 34.9 µM | TGI (RXF 393 renal): 50.3 µM | TGI (SF-268 CNS): 76 µM | TGI (SF-295 CNS): > 100 µM | TGI (SF-539 CNS): > 100 µM | TGI (SK-MEL-2 melanoma): 52 µM | TGI (SK-MEL-28 melanoma): > 100 µM | TGI (SK-MEL-5 melanoma): 36.5 µM | TGI (SK-OV-3 ovarian): 85.9 µM | TGI (SN12C renal): 51.9 µM | TGI (SNB-19 CNS): > 100 µM | TGI (SR leukemia): 25.8 µM | TGI (T-47D breast): 60.1 µM | TGI (TK-10 renal): 54.8 µM | TGI (U251 CNS): > 100 µM | TGI (UACC-257 melanoma): 44.5 µM | TGI (UACC-62 melanoma): 32.5 µM | TGI (UO-31 renal): 67.1 µM

Oc1cc(N2CCCC2)ccc1/C=N/N1C(=S)N(c2ccccc2)C(=Nc2ccccc2)C1=Nc1ccccc1
TGI (786-0 renal): > 100 µM | TGI (A549 NSCLC): > 100 µM | TGI (ACHN renal): > 100 µM | TGI (BT-549 breast): > 100 µM | TGI (CAKI-1 renal): > 100 µM | TGI (COLO 205 colon): > 100 µM | TGI (DU-145 prostate): > 100 µM | TGI (EKVX NSCLC): > 100 µM | TGI (HCC-2998 colon): > 100 µM | TGI (HCT-116 colon): > 100 µM | TGI (HCT-15 colon): > 100 µM | TGI (HOP-62 NSCLC): > 100 µM | TGI (HOP-92 NSCLC): > 100 µM | TGI (HS 578T breast): > 100 µM | TGI (HT29 colon): > 100 µM | TGI (IGROV1 ovarian): > 100 µM | TGI (K-562 leukemia): > 100 µM | TGI (KM12 colon): > 100 µM | TGI (M14 melanoma): > 100 µM | TGI (MALME-3M melanoma): > 100 µM | TGI (MCF7 breast): > 100 µM | TGI (MDA-MB-231 breast): 90.3 µM | TGI (MDA-MB-435): > 100 µM | TGI (MDA-N): > 100 µM | TGI (MOLT-4 leukemia): > 100 µM | TGI (NCI-H226 lung): > 100 µM | TGI (NCI-H23 lung): > 100 µM | TGI (NCI-H460 lung): > 100 µM | TGI (NCI-H522 lung): > 100 µM | TGI (NCI/ADR-RES ovarian): > 100 µM | TGI (OVCAR-3 ovarian): > 100 µM | TGI (OVCAR-5 ovarian): > 100 µM | TGI (OVCAR-8 ovarian): > 100 µM | TGI (PC-3 prostate): > 100 µM | TGI (RPMI-8226 leukemia): > 100 µM | TGI (RXF 393 renal): 46.1 µM | TGI (SF-268 CNS): > 100 µM | TGI (SF-295 CNS): > 100 µM | TGI (SF-539 CNS): > 100 µM | TGI (SK-MEL-2 melanoma): > 100 µM | TGI (SK-MEL-28 melanoma): > 100 µM | TGI (SK-MEL-5 melanoma): > 100 µM | TGI (SK-OV-3 ovarian): > 100 µM | TGI (SN12C renal): > 100 µM | TGI (SNB-19 CNS): > 100 µM | TGI (SR leukemia): > 100 µM | TGI (SW-620 colon): > 100 µM | TGI (T-47D breast): > 100 µM | TGI (TK-10 renal): > 100 µM | TGI (U251 CNS): > 100 µM | TGI (UACC-257 melanoma): > 100 µM | TGI (UACC-62 melanoma): > 100 µM | TGI (UO-31 renal): > 100 µM
